Like-named read-outs stand apart in the source and are kept apart here.
Key:
[1] = target: T1, E. coli CsgA (Escherichia coli, UniProt P28307); assay: Thioflavin T cell-free assay of CsgA aggregation; format: biochemical
T1 construct: 6xHis (C); made in house; host or cells: E. coli NEB 3016 slyD::kan

[2] = target: T2, human α-synuclein (Homo sapiens, UniProt P37840); assay: Thioflavin T cell-free assay of α-synuclein aggregation; format: biochemical; conditions: α-synuclein 50 μM, compounds at 20-50 μM, data from 36 hours; for Inhibition of Aggregation, αSyn: ThT fluorescence, negative = potentiation
T2 construct: the full-length gene for untagged human α-synuclein was inserted; made in house; host or cells: E. coli BL21 (DE3)

[3] = read-out: Inhibition of Aggregation, CsgA
[4] = read-out: Inhibition of Aggregation, CsgA (compound activity range)

T1 sequence (P28307 23-151): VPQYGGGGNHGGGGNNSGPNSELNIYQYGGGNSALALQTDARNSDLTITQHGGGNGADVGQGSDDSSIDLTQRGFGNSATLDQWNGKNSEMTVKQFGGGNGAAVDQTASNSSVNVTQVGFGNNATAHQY

Structure (SMILES)	inhibition at 20 µM [1, 3] [%]	inhibition at 20 µM [1, 4] [%]	Inhibition of Aggregation, αSyn [2] [%]	Inhibition of Aggregation, αSyn (compound activity range) [2]
COc1cc(NC(=O)c2c(N(C)C(=O)c3cc(OC)c(OC)c(OC)c3)sc3c2CCCC3)cc(OC)c1OC [Compound 13, 2-(3,4,5-trimethoxy-N-methylbenzamido)-N-(3,4,5-trimethoxyphenyl)-4,5,6,7-tetrahydrobenzo[b]thiophene-3-carboxamide]	-16	< -10		
COc1cc2[nH]cc(C(=O)Nc3ccccc3)c(=O)c2c(OC)c1OC [Compound 30, 5,6,7-trimethoxy-4-oxo-N-phenyl-1,4-dihydroquinoline-3-carboxamide]	-56	< -10		
O=C(Nc1cccc(O)c1)c1c[nH]c2ccccc2c1=O [Compound 46, N-(3-hydroxyphenyl)-4-oxo-1,4-dihydroquinoline-3-carboxamide]	-7	-10 to 10		
O=C(Nc1sc2c(c1C(=O)Nc1cc(O)c(O)c(O)c1)CCCC2)c1cc(O)cc(O)c1 [Compound 4, 2-(3,5-dihydroxybenzamido)-N-(3,4,5-trihydroxyphenyl)-4,5,6,7-tetrahydrobenzo[b]thiophene-3-carboxamide]	43	30 to 60		
COc1cc(C(=O)Nc2sc3c(c2C(N)=O)CCCC3)cc(OC)c1OC [Compound 12, 2-(3,4,5-trimethoxybenzamido)-4,5,6,7-tetrahydrobenzo[b]thiophene-3-carboxamide]	-23	< -10		
O=C(Nc1cc(O)c(O)c(O)c1)c1c[nH]c2cc(O)cc(O)c2c1=O [Compound 22, 5,7-dihydroxy-4-oxo-N-(3,4,5-trihydroxyphenyl)-1,4-dihydroquinoline-3-carboxamide]	58	30 to 60		
COc1cc(OC)c2c(=O)c(C(=O)Nc3ccccc3O)c[nH]c2c1 [Compound 41, N-(2-hydroxyphenyl)-5,7-dimethoxy-4-oxo-1,4-dihydroquinoline-3-carboxamide]	18	10 to 30	17	(+) ((+) is between 10% to 30% inhibition)
COc1cc(NC(=O)c2c(-c3cc(OC)c(OC)c(OC)c3)[nH]c3cc(OC)c(OC)c(OC)c3c2=O)cc(OC)c1OC [Compound 40, 5,6,7-trimethoxy-4-oxo-N,2-bis(3,4,5-trimethoxyphenyl)-1,4-dihydroquinoline-3-carboxamide]	15	10 to 30	−12	(−−) ((−−) is less than −10% inhibition)
COc1cc(NC(=O)c2c(NC(=O)c3ccccc3)sc3c2CCCC3)cc(OC)c1OC [Compound 11, 2-benzamido-N-(3,4,5-trimethoxyphenyl)-4,5,6,7-tetrahydrobenzo[b]thiophene-3-carboxamide]	-24	< -10		
COc1cc(OC)cc(C(=O)Nc2sc3c(c2C(=O)Nc2cc(OC)c(OC)c(OC)c2)CCCC3)c1 [Compound 3, 2-(3,5-dimethoxybenzamido)-N-(3,4,5-trimethoxyphenyl)-4,5,6,7-tetrahydrobenzo[b]thiophene-3-carboxamide]	-11	< -10		
COc1cc(-c2[nH]c3cc(OC)c(OC)c(OC)c3c(=O)c2C(=O)O)cc(OC)c1OC [Compound 36, 5,6,7-trimethoxy-4-oxo-2-(3,4,5-trimethoxyphenyl)-1,4-dihydroquinoline-3-carboxylic acid]	-47	< -10		
COc1cc(NC(=O)c2c(NC(=O)c3cc(OC)c(OC)c(OC)c3)sc3c2CCCC3)cc(OC)c1OC [Compound 1, 2-(3,4,5-trimethoxybenzamido)-N-(3,4,5-trimethoxyphenyl)-4,5,6,7-tetrahydrobenzo[b]thiophene-3-carboxamide]	8	-10 to 10		
O=C(Nc1ccc(O)cc1)c1c[nH]c2cc(O)c(O)c(O)c2c1=O [Compound 38, 5,6,7-trihydroxy-N-(4-hydroxyphenyl)-4-oxo-1,4-dihydroquinoline-3-carboxamide]			14	(+) ((+) is between 10% to 30% inhibition)
O=C(Nc1sc2c(c1C(=O)Nc1ccccc1)CCCC2)c1cc(O)c(O)c(O)c1 [Compound 8, N-phenyl-2-(3,4,5-trihydroxybenzamido)-4,5,6,7-tetrahydrobenzo[b]thiophene-3-carboxamide]	13	10 to 30	18	(+) ((+) is between 10% to 30% inhibition)
COc1cc2[nH]cc(C(=O)Nc3ccc(O)c(F)c3)c(=O)c2c(OC)c1OC [Compound 34, N-(3-fluoro-4-hydroxyphenyl)-5,6,7-trimethoxy-4-oxo-1,4-dihydroquinoline-3-carboxamide]	-11	< -10		
O=C(Nc1sc2c(c1C(=O)Nc1cc(O)c(O)c(O)c1)CCCC2)c1ccccc1 [Compound 18, 2-benzamido-N-(3,4,5-trihydroxyphenyl)-4,5,6,7-tetrahydrobenzo[b]thiophene-3-carboxamide]	16	10 to 30		

Structure (SMILES)	inhibition at 20 µM [1, 3] [%]	inhibition at 20 µM [1, 4] [%]	Inhibition of Aggregation, αSyn [2] [%]	Inhibition of Aggregation, αSyn (compound activity range) [2]
COc1cc(OC)c2c(=O)c(C(=O)N(C)c3cc(OC)c(OC)c(OC)c3)c[nH]c2c1 [Compound 35, 5,7-dimethoxy-N-methyl-4-oxo-N-(3,4,5-trimethoxyphenyl)-1,4-dihydroquinoline-3-carboxamide]	-53	< -10		
O=C(Nc1ccccc1)c1c[nH]c2ccccc2c1=O [Compound 45, 4-oxo-N-phenyl-1,4-dihydroquinoline-3-carboxamide]	-18	< -10		
COc1cc(NC(=O)c2c(NC(=O)c3cc(OC)c(OC)c(OC)c3)sc3c2CCCC3)cc(OC)c1 [Compound 5, N-(3,5-dimethoxyphenyl)-2-(3,4,5-trimethoxybenzamido)-4,5,6,7-tetrahydrobenzo[b]thiophene-3-carboxamide]	-4	-10 to 10	22	(+) ((+) is between 10% to 30% inhibition)
COc1cc2[nH]cc(C(=O)Nc3ccc(O)cc3)c(=O)c2c(OC)c1OC [Compound 29, N-(4-hydroxyphenyl)-5,6,7-trimethoxy-4-oxo-1,4-dihydroquinoline-3-carboxamide]	9	-10 to 10		
COc1cc(C(=O)Nc2sc3c(c2C(=O)Nc2ccccc2)CCCC3)cc(OC)c1OC [Compound 9, N-phenyl-2-(3,4,5-trimethoxybenzamido)-4,5,6,7-tetrahydrobenzo[b]thiophene-3-carboxamide]	-33	< -10		
COc1cc(C(=O)Nc2sc3c(c2C(=O)O)CCCC3)cc(OC)c1OC [Compound 17, 2-(3,4,5-trimethoxybenzamido)-4,5,6,7-tetrahydrobenzo[b]thiophene-3-carboxylic acid]	18	10 to 30		
COc1cc(OC)c2c(=O)c(C(=O)Nc3ccc(O)c(F)c3)c[nH]c2c1 [Compound 37, N-(3-fluoro-4-hydroxyphenyl)-5,7-dimethoxy-4-oxo-1,4-dihydroquinoline-3-carboxamide]	-17	< -10		
O=C(Nc1ccccc1O)c1c[nH]c2cc(O)c(O)c(O)c2c1=O [Compound 43, 5,6,7-trihydroxy-N-(2-hydroxyphenyl)-4-oxo-1,4-dihydroquinoline-3-carboxamide]	90	> 60	63	(++) ((++) is between 30% to 60% inhibition)
O=C(Nc1ccccc1)c1c[nH]c2cc(O)c(O)c(O)c2c1=O [Compound 33, 5,6,7-trihydroxy-4-oxo-N-phenyl-1,4-dihydroquinoline-3-carboxamide]	59	30 to 60	92	(+++) ((+++) is greater than 60% inhibition)
O=C(Nc1cc(O)cc(O)c1)c1c[nH]c2cc(O)cc(O)c2c1=O [Compound 47, N-(3,5-dihydroxyphenyl)-5,7-dihydroxy-4-oxo-1,4-dihydroquinoline-3-carboxamide]	13	10 to 30		
COc1cc(OC)c2c(=O)c(C(=O)Nc3ccc(O)cc3)c[nH]c2c1 [Compound 31, N-(4-hydroxyphenyl)-5,7-dimethoxy-4-oxo-1,4-dihydroquinoline-3-carboxamide]	-20	< -10		
NC(=O)c1c(NC(=O)c2cc(O)c(O)c(O)c2)sc2c1CCCC2 [Compound 15, 2-(3,4,5-trihydroxybenzamido)-4,5,6,7-tetrahydrobenzo[b]thiophene-3-carboxamide]	52	30 to 60		
COc1cc(C(=O)Nc2sc3c(c2C(=O)N(C)c2cc(OC)c(OC)c(OC)c2)CCCC3)cc(OC)c1OC [Compound 7, N-methyl-2-(3,4,5-trimethoxybenzamido)-N-(3,4,5-trimethoxyphenyl)-4,5,6,7-tetrahydrobenzo[b]thiophene-3-carboxamide]	2	-10 to 10		
Nc1sc2c(c1C(=O)Nc1cc(O)c(O)c(O)c1)CCCC2 [Compound 16, 2-amino-N-(3,4,5-trihydroxyphenyl)-4,5,6,7-tetrahydrobenzo[b]thiophene-3-carboxamide]	31	30 to 60		
COc1cc2[nH]cc(C(=O)Nc3ccccc3O)c(=O)c2c(OC)c1OC [Compound 39, N-(2-hydroxyphenyl)-5,6,7-trimethoxy-4-oxo-1,4-dihydroquinoline-3-carboxamide]	-4	-10 to 10		

Reference: patent publication US11505528B2, “Inhibitors of microbially induced amyloid” (Axial Therapeutics, Inc., priority 2017, dated 2022)
